Measurements: patent publication US9873709B2 (priority 2013, dated 2018)

Tested on: JAK1-dependent STAT6 phosphorylation downstream of IL-13 stimulation in TF-1 human erythroleukemia cells
Test: cells
Conditions: TF-1, read-out: IL-13-pSTAT6 IC50

| Structure (SMILES) | IC50 [nM] |
| --- | --- |
| CN(Cc1ccccn1)C(=O)c1ccc(Nc2nc3c(C4=CCN(C(=O)CCC(F)(F)F)CC4)cccn3n2)cc1 [Example 2-199, N-methyl-N-(2-pyridylmethyl)-4-[[8-[1-(4,4,4-trifluorobulanoyl)-3,6-dihydro-2H-pyridin-4-yl]-[1,2,4]triazolo[1,5-a]pyridin-2-yl]amino]benzamide] | 4.2 |
| O=C(CCC(F)(F)F)N1CC=C(c2cccn3nc(Nc4ccc(C(=O)N5CCN6CCCC6C5)cc4)nc23)CC1 (centres unmarked) [Example 2-200, 1-[4-[2-[4-(3,4,6,7,8,8a-hexahydro-1H-pyrrolo[1,2-a]pyrazine-2-carbonyl)anilino]-[1,2,4]triazolo[1,5-a]pyridin-8-yl]-3,6-dihydro-2H-pyridin-1-yl]-4,4,4-trifluoro-butan-1-one] | 4.1 |
| CN1CC2CC(C1)N(C(=O)c1ccc(Nc3nc4c(C5=CCN(C(=O)CCC(F)(F)F)CC5)cccn4n3)cc1)C2 (centres unmarked) [Example 2-201, 4,4,4-trifluoro-1-[4-[2-[4-(3-methyl-3,6-diazabicyclo[3.2.1]octane-6-carbonyl)anilino]-[1,2,4]triazolo[1,5-a]pyridin-8-yl]-3,6-dihydro-2H-pyridin-1-yl]butan-1-one] | 6 |
| O=C(CCC(F)(F)F)N1CC=C(c2cccn3nc(Nc4ccc(C(=O)N5CCN(C6CC6)CC5)cc4)nc23)CC1 [Example 2-202, 1-[4-[2-[4-(4-cyclopropylpiperazine-1-carbonyl)anilino]-[1,2,4]triazolo[1,5-a]pyridin-8-yl]-3,6-dihydro-2H-pyridin-1-yl]-4,4,4-trifluoro-butan-1-one] | 11.5 |
| Cn1ccnc1CN1CCN(C(=O)c2ccc(Nc3nc4c(C5=CCN(C(=O)CCC(F)(F)F)CC5)cccn4n3)cc2)CC1 [Example 2-203, 4,4,4-trifluoro-1-[4-[2-[4-[4-[(1-methylimidazol-2-yl)methyl]piperazine-1-carbonyl]anilino]-[1,2,4]triazolo[1,5-a]pyridin-8-yl]-3,6-dihydro-2H-pyridin-1-yl]butan-1-one] | 30.1 |
| CC(=O)N1CC2(C1)CN(C(=O)c1ccc(Nc3nc4c(C5=CCN(C(=O)CCC(F)(F)F)CC5)cccn4n3)cc1)C2 [Example 2-204, 1-[4-[2-[4-(6-acetyl-2,6-diazaspiro[3.3]heptane-2-carbonyl)anilino]-[1,2,4]triazolo[1,5-a]pyridin-8-yl]-3,6-dihydro-2H-pyridin-1-yl]-4,4,4-trifluoro-butan-1-one] | 89.7 |
| CN1CC2CN(C(=O)c3ccc(Nc4nc5c(C6=CCN(C(=O)CCC(F)(F)F)CC6)cccn5n4)cc3)CC(C1)O2 [Example 2-205, 4,4,4-trifluoro-1-[4-[2-[4-(7-methyl-9-oxa-3,7-diazabicyclo[3.3.1]nonane-3-carbonyl)anilino]-[1,2,4]triazolo[1,5-a]pyridin-8-yl]-3,6-dihydro-2H-pyridin-1-yl]butan-1-one] | 10 |
| Cc1cncc(CNC(=O)c2ccc(Nc3nc4c(C5=CCN(C(=O)CCC(F)(F)F)CC5)cccn4n3)cc2)c1 [Example 2-206, N-[(5-methyl-3-pyridyl)methyl]-4-[[8-[1-(4,4,4-trifluorobutanoyl)-3,6-dihydro-2H-pyridin-4-yl]-[1,2,4]triazolo[1,5-a]pyridin-2-yl]amino]benzamide] | 3.4 |
| NCC1CN(C(=O)c2ccc(Nc3nc4c(C5=CCN(C(=O)CCC(F)(F)F)CC5)cccn4n3)cc2)C1 [Example 2-207, 1-[4-[2-[4-[3-(aminomethyl)azetidine-1-carbonyl]anilino]-[1,2,4]triazolo[1,5-a]pyridin-8-yl]-3,6-dihydro-2H-pyridin-1-yl]-4,4,4-trifluoro-butan-1-one] | 141 |
| CC1CCN(C2CCN(C(=O)c3ccc(Nc4nc5c(C6=CCN(C(=O)CCC(F)(F)F)CC6)cccn5n4)cc3)CC2)CC1 [Example 2-208, 4,4,4-trifluoro-1-[4-[2-[4-[4-(4-methyl-1-piperidyl)piperidine-1-carbonyl]anilino]-[1,2,4]triazolo[1,5-a]pyridin-8-yl]-3,6-dihydro-2H-pyridin-1-yl]butan-1-one] | 4.4 |
| COCCN(C(=O)c1ccc(Nc2nc3c(C4=CCN(C(=O)CCC(F)(F)F)CC4)cccn3n2)cc1)C1CCN(C)CC1 [Example 2-209, N-(2-methoxyethyl)-N-(1-methyl-4-piperidyl)-4-[[8-[1-(4,4,4-trifluorobutanoyl)-3,6-dihydro-2H-pyridin-4-yl]-[1,2,4]triazolo[1,5-a]pyridin-2-yl]amino]benzamide] | 29.9 |
| CCN(CC)C1CCN(C(=O)c2ccc(Nc3nc4c(C5=CCN(C(=O)CCC(F)(F)F)CC5)cccn4n3)cc2)C1 (centres unmarked) [Example 2-211, 1-[4-[2-[4-[3-(diethylamino)pyrrolidine-1-carbonyl]anilino]-[1,2,4]triazolo[1,5-a]pyridin-8-yl]-3,6-dihydro-2H-pyridin-1-yl]-4,4,4-trifluoro-butan-1-one] | 7.1 |
| CN(CCc1cccnc1)C(=O)c1ccc(Nc2nc3c(C4=CCN(C(=O)CCC(F)(F)F)CC4)cccn3n2)cc1 [Example 2-212, N-methyl-N-[2-(3-pyridyl)ethyl]-4-[[8-[1-(4,4,4-trifluorobutanoyl)-3,6-dihydro-2H-pyridin-4-yl]-[1,2,4]triazolo[1,5-a]pyridin-2-yl]amino]benzamide] | 8 |
| CN1CCCCC1CNC(=O)c1ccc(Nc2nc3c(C4=CCN(C(=O)CCC(F)(F)F)CC4)cccn3n2)cc1 (centres unmarked) [Example 2-214, N-[(1-methyl-2-piperidyl)methyl]-4-[[8-[1-(4,4,4-trifluorobutanoyl)-3,6-dihydro-2H-pyridin-4-yl]-[1,2,4]triazolo[1,5-a]pyridin-2-yl]amino]benzamide] | 5.5 |
| Cc1ccc(C2CCN(C(=O)c3ccc(Nc4nc5c(C6=CCN(C(=O)CCC(F)(F)F)CC6)cccn5n4)cc3)CC2)nc1 [Example 2-215, 4,4,4-trifluoro-1-[4-[2-[4-[4-(5-methyl-2-pyridyl)piperidine-1-carbonyl]anilino]-[1,2,4]triazolo[1,5-a]pyridin-8-yl]-3,6-dihydro-2H-pyridin-1-yl]butan-1-one] | 13.5 |
| Cc1cccc(CCNC(=O)c2ccc(Nc3nc4c(C5=CCN(C(=O)CCC(F)(F)F)CC5)cccn4n3)cc2)n1 [Example 2-216, N-[2-(6-methyl-2-pyridyl)ethyl]-4-[[8-[1-(4,4,4-trifluorobutanoyl)-3,6-dihydro-2H-pyridin-4-yl]-[1,2,4]triazolo[1,5-a]pyridin-2-yl]amino]benzamide] | 7.4 |
| CN(C)c1cc(CC2CCN(C(=O)c3ccc(Nc4nc5c(C6=CCN(C(=O)CCC(F)(F)F)CC6)cccn5n4)cc3)C2)ncn1 (centres unmarked) [Example 2-217, 1-[4-[2-[4-[3-[[6-(dimethylamino)pyrimidin-4-yl]methyl]pyrrolidine-1-carbonyl]anilino]-[1,2,4]triazolo[1,5-a]pyridin-8-yl]-3,6-dihydro-2H-pyridin-1-yl]-4,4,4-trifluoro-butan-1-one] | 9.5 |
| Cc1ccc(CC2CCN(C(=O)c3ccc(Nc4nc5c(C6=CCN(C(=O)CCC(F)(F)F)CC6)cccn5n4)cc3)C2)nc1 (centres unmarked) [Example 2-218, 4,4,4-trifluoro-1-[4-[2-[4-[3-[(5-methyl-2-pyridyl)methyl]pyrrolidine-1-carbonyl]anilino]-[1,2,4]triazolo[1,5-a]pyridin-8-yl]-3,6-dihydro-2H-pyridin-1-yl]butan-1-one] | 15.4 |

The next lines start with the values.

| IC50 [nM] | Structure (SMILES) |
| --- | --- |
| 5.8 | O=C(NCCc1cccnc1)c1ccc(Nc2nc3c(C4=CCN(C(=O)CCC(F)(F)F)CC4)cccn3n2)cc1 [Example 2-220, N-[2-(3-pyridyl)ethyl]-4-[[8-[1-(4,4,4-trifluorobutanoyl)-3,6-dihydro-2H-pyridin-4-yl]-[1,2,4]triazolo[1,5-a]pyridin-2-yl]amino]benzamide] |
| 468 | CN1CCC(N(C)C(=O)c2ccc(Nc3nc4c(C5=CCN(C(=O)NCc6ccccc6)CC5)cccn4n3)cc2)CC1 [Example 2-222, N-benzyl-4-[2-[4-[methyl-(1-methyl-4-piperidyl)carbamoyl]anilino]-[1,2,4]triazolo[1,5-a]pyridin-8-yl]-3,6-dihydro-2H-pyridine-1-carboxamide] |
| 17.3 | CC1CC1C(=O)N1CC=C(c2cccn3nc(Nc4ccc(C(=O)N(C)C5CCN(C)CC5)cc4)nc23)CC1 (centres unmarked) [Example 2-223, N-methyl-4-[[8-[1-(2-methylcyclopropanecarbonyl)-3,6-dihydro-2H-pyridin-4-yl]-[1,2,4]triazolo[1,5-a]pyridin-2-yl]amino]-N-(1-methyl-4-piperidyl)benzamide] |
| 204 | COC(=O)N1CC=C(c2cccn3nc(Nc4ccc(C(=O)N(C)C5CCN(C)CC5)cc4)nc23)CC1 [Example 2-224, methyl 4-[2-[4-[methyl-(1-methyl-4-piperidyl)carbamoyl]anilino]-[1,2,4]triazolo[1,5-a]pyridin-8-yl]-3,6-dihydro-2H-pyridine-1-carboxylate] |
| 11.3 | CN1CCC(N(C)C(=O)c2ccc(Nc3nc4c(C5=CCN(C(=O)OCC(F)F)CC5)cccn4n3)cc2)CC1 [Example 2-225, 2,2-difluoroethyl 4-[2-[4-[methyl-(1-methyl-4-piperidyl)carbamoyl]anilino]-[1,2,4]triazolo[1,5-a]pyridin-8-yl]-3,6-dihydro-2H-pyridine-1-carboxylate] |
| 157 | CCOC(=O)N1CC=C(c2cccn3nc(Nc4ccc(C(=O)NCCNC)cc4)nc23)CC1 [Example 2-230, ethyl 4-[2-[4-[2-(methylamino)ethylcarbamoyl]anilino]-[1,2,4]triazolo[1,5-a]pyridin-8-yl]-3,6-dihydro-2H-pyridine-1-carboxylate] |
| 268 | CCOC(=O)N1CC=C(c2cccn3nc(Nc4ccc(C(=O)NC5CCNC5)cc4)nc23)CC1 (centres unmarked) [Example 2-231, ethyl 4-[2-[4-(pyrrolidin-3-ylcarbamoyl)anilino]-[1,2,4]triazolo[1,5-a]pyridin-8-yl]-3,6-dihydro-2H-pyridine-1-carboxylate] |
| 288 | CCOC(=O)N1CC=C(c2cccn3nc(Nc4ccc(C(=O)N5CCCCC5c5cccnc5)cc4)nc23)CC1 (centres unmarked) [Example 2-232, ethyl 4-[2-[4-[2-(3-pyridyl)piperidine-1-carbonyl]anilino]-[1,2,4]triazolo[1,5-a]pyridin-8-yl]-3,6-dihydro-2H-pyridine-1-carboxylate] |
